In paper PMC8071423, “A New Pyrimidine Schiff Base with Selective Activities against Enterococcus faecalis and Gastric Adenocarcinoma” (Molecules, 2021):
Values after ≈ are worked out from the molar mass of the structure shown. One block for each compound: values may come before it.

Experiments:
[1] = test system: Candida albicans ATCC 10231; experiment: Antimicrobial microdilution / modified Richards method; type: cell-based; settings: ATCC10231; Candida albicans 10231; according to the EUCAST examination; read-out: MIC (reference agent)
[2] = test system: Escherichia coli ATCC 25922; experiment: as above; type: cell-based; settings: ATCC25922; Escherichia coli 25922; according to the EUCAST examination; read-out: MIC (reference agent)
[3] = test system: Pseudomonas aeruginosa ATCC 27853; experiment: as above; type: cell-based; settings: ATCC27853; Pseudomonas aeruginosa 27853; according to the EUCAST examination; read-out: MIC (reference agent)
[4] = test system: Klebsiella pneumoniae ATCC 13883; experiment: as above; type: cell-based; settings: ATCC13883; Klebsiella pneumoniae 13883; according to the EUCAST examination; read-out: MIC (reference agent)
[5] = test system: Staphylococcus aureus ATCC 43300; experiment: as above; type: cell-based; settings: ATCC43300; Staphylococcus aureus 43300; according to the EUCAST examination; read-out: MIC (reference agent)
[6] = test system: Enterococcus faecalis ATCC 29212; experiment: as above; type: cell-based; settings: Enterococcus faecalis, ATCC29212, Enterococcus faecalis 29212; according to the EUCAST examination; read-out: MIC (reference agent)
[7] = test system: Streptococcus pneumoniae ATCC 49619; experiment: as above; type: cell-based; settings: ATCC49619; Streptococcus pneumoniae 49619; according to the EUCAST examination; read-out: MIC (reference agent)
AGS cell line = experiment: Microscopic observation of cell and nucleus morphology, Hoechst 33342; type: cell-based, human; settings: positive control, 1 µM
Method: Morphological changes and DNA fragmentation were examined with an Olympus IX53 inverted fluorescence microscope after staining with Hoechst 33342 according to the manufacturer’s recommendations Thermo Scientific (Waltham, MA, USA). Briefly, cells were seeded in 12-well plates with a density of 1 × 10^5 cell/mL. After overnight incubation, the test substance was added in a half-maximal inhibitory (IC50) concentration and incubated for 24, 48, and 72 h. Before microscopic observation, both adherent and floating cells were collected, centrifuged, resuspended in PBS containing 1 µg/mL Hoechst 33342 dye. After 10 min incubation in the dark, the morphology of cells and DNA were visualized using a contrast phase and a UV filter.

MIC [1]: 1 µg/mL (≈ 1.08 µM)
Structure (SMILES): C[C@@H]1[C@H](O)[C@@H](C)/C=C/C=C/C=C/C=C/C=C/C=C/C=C/[C@H](O[C@@H]2O[C@H](C)[C@@H](O)[C@H](N)[C@@H]2O)C[C@@H]2O[C@](O)(C[C@@H](O)C[C@@H](O)[C@H](O)CC[C@@H](O)C[C@@H](O)CC(=O)O[C@H]1C)C[C@H](O)[C@H]2C(=O)O [amphotericin B]

MIC [2]: 2 µg/mL (≈ 4.19 µM)
Structure (SMILES): CNC(C)C1CCC(N)C(OC2C(N)CC(N)C(OC3OCC(C)(O)C(NC)C3O)C2O)O1 (centres unmarked) [gentamicin]

MIC [3]: 1 µg/mL (≈ 2.77 µM) | MIC [4]: 0.5 µg/mL (≈ 1.38 µM) | MIC [5]: 1 µg/mL (≈ 2.77 µM) | MIC [6]: 4 µg/mL (≈ 11.1 µM) | MIC [7]: 0.001 µg/mL (≈ 0.00277 µM)
Structure (SMILES): C[C@H]1COc2c(N3CCN(C)CC3)c(F)cc3c(=O)c(C(=O)O)cn1c23 [levofloxacin]

Structure (SMILES): CN[C@@H]1C[C@H]2O[C@@](C)([C@@H]1OC)n1c3ccccc3c3c4c(c5c6ccccc6n2c5c31)C(=O)NC4 [staurosporine, reference compound]
cell and nucleus morphology (AGS cell line): Shrunken cells’ bodies and fragmented DNA
